# From article PMC7557402, “Evaluation of Nucleoside Analogs as Antimicrobials Targeting Unique Enzymes in Borrelia burgdorferi” (Pathogens, 2020)
# Test system: B. burgdorferi strain N40
# Test: microbe, parasite or virus in culture
# Assay type: cell-based, Borrelia burgdorferi
# Conditions: Borreliella burgdorferi, N40; bioluminescence; stated after the 72 h results, time not given explicitly; read-out: IC50 (loss of B. burgdorferi vitality)
# Experimental: B. burgdorferi N40 strain carrying a firefly luciferase gene (Bbluc), which is a derivative of the N40D10/E9 clone, was used in this study and is labeled as N40 throughout. N40 was cultured at 33 °C in Barbour-Stoenner-Kelly-II (BSK-II) medium supplemented with 6% rabbit serum (BSKII-RS). Bacterial counts were determined under 400× magnification using a hemocytometer and a dark field microscope.
# The luciferase expressing B. burgdorferi N40 strain was grown to a density of ~10^8 spirochetes/mL and divided into two aliquots. One aliquot was incubated at 60 °C for 30 min to kill the spirochetes. […] The culture was mixed with the substrate by shaking in the dark, incubated at 37 °C for 5 min in a Spectramax M2 microplate reader (Molecular Devices, San Jose, CA, USA) and the bioluminescence measured. […]
# Nucleosides and nucleoside analogs were prepared as sterile 1 mM stock solutions in distilled water (MSeA, IADO, FSBA, and dEt-ImmA) or in DMSO (PurTA). […] Photon emission due to luciferase activity was measured at three time points, after: (a) 24 h, (b) 72 h, and (c) 7 days of treatments to observe the effect of inhibitors on B. burgdorferi culture. At the end of each time point, bioluminescence was measured as described above. […]
smiles,measurement,value
"Nc1ncnc2c1ncn2[C@@H]1O[C@H](CI)[C@@H](O)[C@H]1O [IADO, 5′-deoxy-5′-iodoadenosine]",IC50,~1000 nM
